Assays:
[1] = molecular target: CfEcR-DEF mutant M54W (Choristoneura fumiferana, UniProt O77255, M337W); experiment: cell-based; conditions: mutant M54W
Description: (§1) This construct was prepared in the same way as in switch 1.1 above except wild-type CfEcR-DEF was replaced with mutant CfEcR-DEF comprising a ligand binding domain comprising a substitution mutation selected from Table 1 below.
(§2) DNAs were transfected into mouse NIH3T3 cells (ATCC) as follows. Standard methods for culture and maintenance of the cells were followed. Cells were harvested and plated 96-well plates at 2,500 cells per well, in 50 μL of growth medium containing 10% fetal bovine serum (FBS). Twenty-four hours later, the cells were treated with 35 μL of serum-free growth medium containing either dimethylsulfoxide (DMSO; control) or a DMSO solution of ligand. The cells were then transfected using Superfect (Qiagen Inc.) transfection reagent. For each well, 0.625 μL of Superfect was mixed with 14.2 μL of serum-free growth medium. 0.16 μg of reporter construct and 0.04 μg of each receptor construct were added to the transfection reagent mix. The contents of the transfection mix were mixed in a vortex mixer and let stand at room temperature for 30 minutes. At the end of incubation, 15 μL of transfection mix was added to the cells. The cells were maintained at 37° C. and 5% CO2 for 48 hours in 5% FBS.
(§3) Reporter Assays: Cells were harvested 40 hours after adding ligands. 125 μL of passive lysis buffer (part of Dual-Luciferase reporter assay system from Promega Corporation) were added to each well of the […] plate. The plates were placed on a rotary shaker for 15 minutes. Twenty μL of lysate were assayed. Luciferase activity was measured using Dual-Luciferase reporter assay system from Promega Corporation following the manufacturer's instructions. Fold induction (FI) activities were calculated by dividing relative light units (“RLU”) in ligand treated cells with RLU in DMSO treated cells (untreated control).

[2] = molecular target: CfEcR-DEF mutant Y120W (Choristoneura fumiferana, UniProt O77255, Y403W); experiment: cell-based; conditions: mutant Y120W
CfEcR-DEF mutant Y120W, sequence (O77255 entry or part of it Y403W): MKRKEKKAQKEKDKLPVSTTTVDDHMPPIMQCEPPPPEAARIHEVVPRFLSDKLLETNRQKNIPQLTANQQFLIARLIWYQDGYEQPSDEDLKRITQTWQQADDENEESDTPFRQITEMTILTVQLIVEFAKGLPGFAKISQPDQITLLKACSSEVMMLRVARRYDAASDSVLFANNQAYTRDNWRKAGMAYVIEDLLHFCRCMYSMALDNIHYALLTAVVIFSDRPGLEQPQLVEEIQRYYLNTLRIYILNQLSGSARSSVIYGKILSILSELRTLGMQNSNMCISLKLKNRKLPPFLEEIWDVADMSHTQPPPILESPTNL
CfEcR-DEF mutant Y120W, sequence (P28702 299-449, further chain): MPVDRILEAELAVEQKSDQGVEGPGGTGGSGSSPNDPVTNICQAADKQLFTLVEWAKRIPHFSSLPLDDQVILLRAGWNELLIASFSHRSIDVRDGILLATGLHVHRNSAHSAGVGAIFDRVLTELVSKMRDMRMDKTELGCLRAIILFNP
Description: as §1, §2, §3

[3] = molecular target: CfEcR-DEF mutant A110E (Choristoneura fumiferana, UniProt O77255, A393E); experiment: cell-based; conditions: mutant A110E
Description: as §1, §2, §3

[4] = molecular target: CfEcR-DEF mutant L234I (Choristoneura fumiferana, UniProt O77255, L517I); experiment: cell-based; conditions: mutant L234I
Description: as §1, §2, §3

[5] = molecular target: CfEcR-DEF mutant L234M (Choristoneura fumiferana, UniProt O77255, L517M); experiment: cell-based; conditions: mutant L234M
Description: as §1, §2, §3

[6] = molecular target: CfEcR-DEF mutant A110W (Choristoneura fumiferana, UniProt O77255, A393W); experiment: cell-based; conditions: mutant A110W
Description: as §1, §2, §3

[7] = molecular target: CfEcR-DEF mutant T52E (Choristoneura fumiferana, UniProt O77255, T335E); experiment: cell-based; conditions: mutant T52E
CfEcR-DEF mutant T52E, sequence (O77255 entry or part of it T335E): as the sequence (O77255 entry or part of it Y403W) above, with T117E, W185Y counted along it
CfEcR-DEF mutant T52E, sequence (P28702 299-449, further chain): as the sequence (P28702 299-449, further chain) above
Description: as §1, §2, §3

[8] = molecular target: CfEcR-DEF mutant F48L (Choristoneura fumiferana, UniProt O77255, F331L); experiment: cell-based; conditions: mutant F48L
CfEcR-DEF mutant F48L, sequence (P28702 299-449): as the sequence (P28702 299-449, further chain) above
CfEcR-DEF mutant F48L, sequence (O77255 entry or part of it F331L): as the sequence (O77255 entry or part of it Y403W) above, with F113L, W185Y counted along it
Description: as §1, §2, §3

[9] = molecular target: CfEcR-DEF mutant R95M (Choristoneura fumiferana, UniProt O77255, R378M); experiment: cell-based; conditions: mutant R95M
Description: as §1, §2, §3

[10] = molecular target: CfEcR-DEF mutant M92L (Choristoneura fumiferana, UniProt O77255, M375L); experiment: cell-based; conditions: mutant M92L
CfEcR-DEF mutant M92L, sequence (O77255 entry or part of it M375L): as the sequence (O77255 entry or part of it Y403W) above, with M157L, W185Y counted along it
CfEcR-DEF mutant M92L, sequence (P28702 299-449, further chain): as the sequence (P28702 299-449, further chain) above
Description: as §1, §2, §3

[11] = molecular target: CfEcR-DEF mutant V96S (Choristoneura fumiferana, UniProt O77255, V379S); experiment: cell-based; conditions: mutant V96S
CfEcR-DEF mutant V96S, sequence (O77255 entry or part of it V379S): as the sequence (O77255 entry or part of it Y403W) above, with V161S, W185Y counted along it
CfEcR-DEF mutant V96S, sequence (P28702 299-449, further chain): as the sequence (P28702 299-449, further chain) above
Description: as §1, §2, §3

[12] = molecular target: CfEcR-DEF mutant N119F/V96T (Choristoneura fumiferana, UniProt O77255, N402F/V379T); experiment: cell-based; conditions: mutant N119F/V96T
CfEcR-DEF mutant N119F/V96T, sequence (O77255 entry or part of it V379T/N402F): as the sequence (O77255 entry or part of it Y403W) above, with V161T, N184F, W185Y counted along it
CfEcR-DEF mutant N119F/V96T, sequence (P28702 299-449, further chain): as the sequence (P28702 299-449, further chain) above
Description: as §1, §2, §3

[13] = molecular target: CfEcR-DEF mutant V96L (Choristoneura fumiferana, UniProt O77255, V379L); experiment: cell-based; conditions: mutant V96L
CfEcR-DEF mutant V96L, sequence (O77255 entry or part of it V379L): as the sequence (O77255 entry or part of it Y403W) above, with V161L, W185Y counted along it
CfEcR-DEF mutant V96L, sequence (P28702 299-449, further chain): as the sequence (P28702 299-449, further chain) above
Description: as §1, §2, §3

[14] = molecular target: CfEcR-DEF mutant V107I/Y127E/A110P (Choristoneura fumiferana, UniProt O77255, A393P/V390I/Y410E); experiment: cell-based; conditions: mutant V107I/Y127E/A110P
Description: as §1, §2, §3

[15] = molecular target: CfEcR-DEF mutant F109L (Choristoneura fumiferana, UniProt O77255, F392L); experiment: cell-based; conditions: mutant F109L
Description: as §1, §2, §3

[16] = molecular target: CfEcR-DEF mutant M92E (Choristoneura fumiferana, UniProt O77255, M375E); experiment: cell-based; conditions: mutant M92E
Description: as §1, §2, §3

[17] = molecular target: CfEcR-DEF mutant M54T (Choristoneura fumiferana, UniProt O77255, M337T); experiment: cell-based; conditions: mutant M54T
CfEcR-DEF mutant M54T, sequence (O77255 entry or part of it M337T): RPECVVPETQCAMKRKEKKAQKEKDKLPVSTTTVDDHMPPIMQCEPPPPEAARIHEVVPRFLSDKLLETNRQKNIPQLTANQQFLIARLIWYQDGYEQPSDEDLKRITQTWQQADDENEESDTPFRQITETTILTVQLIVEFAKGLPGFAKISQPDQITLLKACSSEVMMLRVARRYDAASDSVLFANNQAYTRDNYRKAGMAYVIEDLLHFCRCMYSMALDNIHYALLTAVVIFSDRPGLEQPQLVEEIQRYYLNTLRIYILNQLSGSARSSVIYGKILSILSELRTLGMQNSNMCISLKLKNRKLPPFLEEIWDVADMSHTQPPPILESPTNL
CfEcR-DEF mutant M54T, sequence (P28702 299-449, further chain): as the sequence (P28702 299-449, further chain) above
Description: as §1, §2, §3

[18] = molecular target: CfEcR-DEF mutant M125R (Choristoneura fumiferana, UniProt O77255, M408R); experiment: cell-based; conditions: mutant M125R
Description: as §1, §2, §3

[19] = molecular target: CfEcR-DEF mutant V107I/Y127E/G (Choristoneura fumiferana, UniProt O77255, INS541G/V390I/Y410E); experiment: GAL4-driven luciferase reporter assay in NIH3T3 cells; assay type: cell-based; conditions: mutant V107I/Y127E/G
Description: as §1
The Gal-4-CfEcR-DEF(VYG) mutant was created by inserting an extra glycine at the C-terminal end of EcR substitution mutant V107I/Y127E [CfECR(VY)] by PCR. Essentially, this was done in two steps: PCR-amplification of CfEcR-DEF(VYG) and substitution of the CfEcR(VY) in the vector GAL4-CfEcR DEF(VY) pBIND 1-9 with the PCR-amplified CfEcR-DEF(VYG). The CfEcR-DEF region (with the extra glycine) was amplified by using the vector GAL4-CfEcR DEF(VY) pBIND 1-9 as template and the following PCR primers: […]
as §2, §3

[20] = relative to max fold induction of GS-E ligand

CfEcR-DEF mutant M54W, sequence (O77255 entry or part of it M337W): as the sequence (O77255 entry or part of it M337T) above, with T131W counted along it
CfEcR-DEF mutant M54W, sequence (P28702 299-449, further chain): as the sequence (P28702 299-449, further chain) above

For CC(C)CC[C@@H](O)[C@](C)(O)[C@H]1CC[C@@]2(O)C3=CC(=O)[C@@H]4C[C@@H](O)[C@@H](O)C[C@]4(C)[C@H]3CC[C@]12C [PonA, ponasterone A], the “Rel Max FI” value [1] was 0.46, the EC50 ([1]; read-out: EC50) was ~10 µM and the “Rel Max FI” value [2] was 0.69. For the same compound, the EC50 ([2]; read-out: EC50) was ~10 µM, the EC50 ([3]; read-out: EC50) was ~10 µM and the “Rel Max FI” value [3, 20] was 1.09. The “Rel Max FI” value [4] was 0.56, the EC50 ([4]; read-out: EC50) was ~7 µM and the “Rel Max FI” value [5] was 0.02. For the same compound, the EC50 ([5]; read-out: EC50) was > 33 µM, the “Rel Max FI” value [6] was 0.01 and the EC50 ([6]; read-out: EC50) was > 33 µM. For the same compound, the “Rel Max FI” value [7] was 0, the EC50 ([7]; read-out: EC50) was > 33 µM and the EC50 ([8]; read-out: EC50) was ~10 µM. The “Rel Max FI” value [8, 20] was 0.59, the “Rel Max FI” value [9] was 0 and the EC50 ([9]; read-out: EC50) was > 33 µM. The “Rel Max FI” value [10] was 0, the EC50 ([10]; read-out: EC50) was > 33 µM and the EC50 ([11]; read-out: EC50) was ~2 µM. For the same compound, the “Rel Max FI” value [11, 20] was 0.92, the EC50 ([12]; read-out: EC50) was ~0.3 µM and the “Rel Max FI” value [12, 20] was 2.02. For the same compound, the “Rel Max FI” value [13] was 0.49, the EC50 ([13]; read-out: EC50) was 7.49 µM and the EC50 ([14]; read-out: EC50) was > 33 µM. For the same compound, the “Rel Max FI” value [14, 20] was 0.01, the “Rel Max FI” value [15] was 0.03 and the EC50 ([15]; read-out: EC50) was > 33 µM. For the same compound, the “Rel Max FI” value [16] was 0.01, the EC50 ([16]; read-out: EC50) was > 33 µM and the EC50 ([17]; read-out: EC50) was 9.46 µM. For the same compound, the “Rel Max FI” value [17, 20] was 0.5, the “Rel Max FI” value [18] was 0 and the EC50 ([18]; read-out: EC50) was ~8 µM. The EC50 ([19]; read-out: EC50) was 1.65 µM and the “Rel Max FI” value [19, 20] was 0.67.
